Measurements reported in patent US20230257359A1, “4-ARYLQUINAZOLINE DERIVATIVES AS METHIONINE ADENOSYLTRANSFERASE 2A INHIBITORS” (IDEAYA BIOSCIENCES, INC., priority 2020, published 2023).

Legend:
[1] = biological target: T1, hMAT2A (Homo sapiens, UniProt P31153); test: Phosphate Sensor Fluorescence Assay (MAT2A enzyme inhibition); assay type: biochemical; set-up: Human MAT2A: Cepter, amino acids 1-395; purchased Cepter clone ID 329, lot 00023-123; clone ID 334, lot 00023-148; details: L-methionine and ATP 500 uM, 1 hour
T1 sequence (P31153 whole entry, the tested form may be a part): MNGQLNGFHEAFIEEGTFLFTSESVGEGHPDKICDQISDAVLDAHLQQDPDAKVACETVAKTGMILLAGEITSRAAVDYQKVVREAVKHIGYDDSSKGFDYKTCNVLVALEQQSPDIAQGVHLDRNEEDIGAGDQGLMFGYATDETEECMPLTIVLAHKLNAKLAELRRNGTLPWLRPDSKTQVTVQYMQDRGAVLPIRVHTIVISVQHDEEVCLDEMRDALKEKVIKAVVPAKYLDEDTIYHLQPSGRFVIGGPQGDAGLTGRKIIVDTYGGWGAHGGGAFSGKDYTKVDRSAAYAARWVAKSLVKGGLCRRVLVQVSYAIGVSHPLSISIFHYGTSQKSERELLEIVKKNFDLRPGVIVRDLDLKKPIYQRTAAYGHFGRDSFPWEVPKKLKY
Method: (§1) The ability of the compound of present disclosure to inhibit MAT2A enzyme was determined using the Malachite Green or Phosphate Sensor Fluorescence Assay described below.
Biologic Example B. Phosphate Sensor Fluorescence Assay
MAT2A enzyme is incubated with a test compound in DMSO or DMSO and its substrates (L-methionine and ATP) in a microtiter plate. The enzymatic reaction is stopped by the addition of Working Phosphate Sensor Mixture. The plate is analyzed for fluorescence at 450 nm. The high control (DMSO with enzyme and its substrates) gives high fluorescence which represents no inhibition of enzymatic activity while the low control (DMSO with MAT2A substrates and no enzyme) gives low fluorescence which represents full inhibition of enzymatic activity.
Human MAT2A: Cepter, amino acids 1-395
Assay Buffer: 50 mM Tris, pH 7.5/50 mM KCl/10 mM MgCl2/0.01% Brij-35/1 mM DTT/0.1% BGG/40 nM PNP/6 uM 7-MEG
MAT2A: 10 nM for Cepter clone ID 329, lot 00023-123 before the addition of Working Phosphate Sensor Mixture • 5 nM for Cepter clone ID 334, lot 00023-148 before the addition of Working Phosphate Sensor Mixture
L-methionine: 500 uM before the addition of Working Phosphate Sensor Mixture
ATP: 500 uM before the addition of Working Phosphate Sensor Mixture
For the assay, a mixture of 1 mM L-methionine/1 mM ATP (2× final pre-stopped concentration) in assay buffer; MAT2A (2× final pre-stopped concentration) in Assay Buffer and Working Phosphate Sensor Mixture (1.5 uM Phosphate Sensor/30 mM EDTA in Assay Buffer, which is 3× final concentrations) were prepared. Test compounds or DMSO were added to the appropriate well suing D300e digital dispenser. 5 μl/well of Assay Buffer was added to the wells corresponding to the negative control and 5 μl/well of MAT2A was added to all the wells except for those corresponding to the negative control. After incubating the plate at room temperature for 15 minutes, 5 μl/well of the 1 mM L-methionine/1 mM ATP mixture was added to all wells. The plate was centrifuged at 1000 rpm for 1 minute and then incubated at room temperature for 1 hour. 5 μl of the Working Phosphate Sensor Mixture was added to all wells and the plate was centrifuged at 1000 rpm for 1 minute. The plate was read for fluorescence at 450 nm after exciting at 430 nm.
Percent inhibition was calculated in Chemical and Biological Information System (CBIS), (ChemInnovation Software Inc.). Curves were fitted by CBIS as % inhibition vs. log [compound concentration] using a 4-parameter inhibition model.
Fit=(A+((B−A)/(1+((C/x)^D))))

[2] = biological target: T1, hMAT2A; test: Malachite Green Assay (MAT2A enzyme inhibition); assay type: biochemical; set-up: amino acids 1-395; purchased Cepter; details: hMAT2A 50 nM, substrates 500 uM each, 1 hour
Method: as §1
Biologic Example A. Malachite Green Assay
Enzyme: MAT2A • hMAT2A: 50 nM, Cepter, 10 mg/mL (234 μM), amino acids 1-395 • Substrates: 500 uM each • Reaction time: 1 hour
L-methionine Substrate: Alfa Aesar catalog #J61904
ATP Substrate: Alfa Aesar cat #J60336
Malachite Green Detection Reagent: Millipore Sigma catalog #MAK307-1KT
Assay buffer: 50 mM Tris, pH 7.5/50 mM KCl/10 mM MgCl2/0.01% Brij-35/1 mM DTT/0.1% BGG
0% inhibition control: DMSO
100% inhibition control: No enzyme
5 μL of 3× final concentration test compounds in DMSO or DMSO were transferred to the appropriate wells of a microtiter plate and the plate was centrifuged at 1000 rpm for 1 minute. 5 μL of 3× final concentration MAT2A enzyme in assay buffer or assay buffer alone was transferred to the appropriate wells and the plate was centrifuged at 1000 rpm for 1 minute. The plate was incubated at room temperature for 15 minutes and then 5 μL of 3× the L-methionine and ATP substrate mixture in assay buffer was transferred to all the test wells. The plate was centrifuged at 1000 rpm for 1 minute and then incubated at room temperature for 1 hour. 5 μL of malachite green detection reagent was added to all the test wells and the plate was centrifuged at 1000 rpm for 1 minute and then incubated at room temperature for 30 minutes. The plate was read for absorbance at 620 nm on a plate reader (e.g., Infinite M1000). The high control (DMSO) with high absorbance represents no inhibition of enzymatic reaction while the low control (no enzyme) with low absorbance represents full inhibition of enzymatic reaction.

SMILES | IC50 ([1]; class symbols) | IC50 ([2]; class symbols) | IC50 ([2]; numeric bound) | IC50 ([1]; numeric bound)
Oc1nc(-c2ccccc2)c2cc(C(F)(F)F)ccc2n1 [1.015, 4-phenyl-6-(trifluoromethyl)quinazolin-2-ol] | 10 to 200 nM |  |  | 
Oc1nc(-c2cccnc2C(F)(F)F)c2cc(Br)ccc2n1 [1.021, 6-bromo-4-(2-(trifluoromethyl)pyridin-3-yl)quinazolin-2-ol] | 1000 to 10000 nM |  |  | 
Cc1ncccc1-c1nc(O)nc2ccc(Br)cc12 [1.020, 6-bromo-4-(2-methylpyridin-3-yl)quinazolin-2-ol] | 10 to 200 nM |  |  | 
Oc1nc(-c2cccnc2)c2cc(Br)ccc2n1 [1.017, 6-bromo-4-(pyridin-3-yl)quinazolin-2-ol] | 1000 to 10000 nM |  |  | 
NC(=O)Cc1nc(-c2ccccc2)c2cc(Cl)ccc2n1 [1.011, 2-(6-chloro-4-phenylquinazolin-2-yl)acetamide] |  |  | > 10000 nM | > 10000 nM
COC(=O)Cc1nc(-c2ccccc2)c2cc(Cl)ccc2n1 [1.012, methyl 2-(6-chloro-4-phenylquinazolin-2-yl)acetate] |  |  | > 10000 nM | > 10000 nM
N#CCc1nc(-c2ccccc2)c2cc(Cl)ccc2n1 [1.010, 2-(6-chloro-4-phenylquinazolin-2-yl)acetonitrile] |  |  | > 10000 nM | > 10000 nM
COc1cc(C2CC2)cc2c(-c3ccccc3)nc(O)nc12 [1.019, 6-cyclopropyl-8-methoxy-4-phenylquinazolin-2-ol] | 10 to 200 nM |  |  | 
Cc1ccccc1-c1nc(O)nc2ccc(C3CC3)cc12 [1.016, 6-cyclopropyl-4-(o-tolyl)quinazolin-2-ol] | 10 to 200 nM |  |  | 
CNC(=O)c1nc(-c2ccccc2)c2cc(Cl)ccc2n1 [1.008, 6-chloro-N-methyl-4-phenylquinazoline-2-carboxamide] |  |  | > 10000 nM | > 10000 nM
Oc1nc(-c2cccnc2Cl)c2cc(Br)ccc2n1 [1.003, 6-bromo-4-(2-chloropyridin-3-yl)quinazolin-2-ol] | 200 to 500 nM |  |  | 
CC(C)(C)OC(=O)N1CC(Oc2nc(-c3ccccc3)c3cc(Cl)ccc3n2)C1 [1.004, tert-butyl 3-((6-chloro-4-phenylquinazolin-2-yl)oxy)azetidine-1-carboxylate] |  |  | > 10000 nM | > 10000 nM
Cc1ccc2nc(O)nc(-c3ccccc3)c2n1 [1.018, 6-methyl-4-phenylpyrido[3,2-d]pyrimidin-2-ol] | 1000 to 10000 nM |  |  | 

Results, then the compound that gave them:

IC50 ([1]; class symbols) | IC50 ([2]; class symbols) | IC50 ([2]; numeric bound) | IC50 ([1]; numeric bound) | SMILES
10 to 200 nM | 10 to 200 nM |  |  | O=c1nc(-c2ccccc2)c2cc(Cl)ccc2[nH]1 [1.001, 6-chloro-4-phenylquinazolin-2-ol]
 |  | > 10000 nM | > 10000 nM | N#Cc1nc(-c2ccccc2)c2cc(Cl)ccc2n1 [1.005, 6-chloro-4-phenylquinazoline-2-carbonitrile]
500 to 1000 nM |  |  |  | Cc1ccc2[nH]c(=O)nc(-c3ccccc3)c2c1 [1.014, 6-methyl-4-phenylquinazolin-2-ol]
10 to 200 nM | 10 to 200 nM |  |  | O=c1nc(-c2ccccc2)c2cc(Br)ccc2[nH]1 [1.013, 6-bromo-4-phenylquinazolin-2-ol]
 |  | > 10000 nM | > 10000 nM | Clc1ccc2nc(Cl)nc(-c3ccccc3)c2c1 [1.002, 2,6-dichloro-4-phenylquinazoline]
 |  | > 10000 nM | > 10000 nM | OCc1nc(-c2ccccc2)c2cc(Cl)ccc2n1 [1.009]
 |  |  | > 10000 nM | O=C(O)c1nc(-c2ccccc2)c2cc(Cl)ccc2n1 [1.006, 6-chloro-4-phenylquinazoline-2-carboxylic acid]
